Assay results reported in patent publication US20200352886A1 (priority 2009, published 2020).

Key:
Sprague-Dawley rats = details: rat, in vivo
Gottingen Minipigs = details: minipig, in vivo
Procedure: The broad aim of the study was to evaluate the potential dermal toxicity of DMSO when administered topically to four groups of Gottingen Minipigs® for 52 weeks at concentrations of 0, 9%, 45.5% and 90% (w/w) and to evaluate reversibility, progression, or delayed appearance of any observed changes following a 1-month postdose observation period. Two additional groups of Gottingen Minipigs® were dosed topically for 39 weeks at 0% and 90% followed by a 4-month recovery post dose observation period.
Four groups consisting of six animals/sex/group received DMSO at respective dose levels of 0, 9, 45.5, or 90% (w/w) by dermal application three times a day for 364 consecutive days. Following 52 weeks of administration, two animals/sex at 0, 9, 45.5, and 90% dose levels were maintained for a 4-week recovery period. Two additional groups consisting of six animals/sex/group received the control or 90% (w/w) DMSO by dermal application three times a day for 273 consecutive days. Following 39 weeks of administration, two animals/sex at 0 and 90% dose levels were maintained for a 4 month recovery period. […]
Clinical observations were conducted weekly. At the end of the each treatment and recovery period, necropsy examinations were performed, organ weights were recorded, and selected tissues were microscopically examined. […]

[1] = cited from earlier work
[2] = tested on: symptomatic primary osteoarthritis of the knee; experiment: 12-week double-blind, double-dummy randomized controlled trial: efficacy (WOMAC, POHA, PGA); format: in vivo, human; details: 12 weeks
Procedure: This randomized, double-blind, double-dummy, placebo-, vehicle- and active-controlled study was conducted at 40 outpatient centers in Canada and 21 centers in the United States following approval by the appropriate institutional review boards. Eligible subjects, after written informed consent, included men and non-pregnant women aged 40-85 with primary OA of the knee based on (i) standard radiological criteria for OA (Altman, R D, et al., Atlas of individual radiographic features in osteoarthritis. […] J Rheumatol. 1988 December; 15(12):1833-40). All knee films were reviewed by a single radiologist and each compartment was scored (none=1, mild=2, moderate=3, severe=4). Only one knee was treated; where both knees met all entry criteria, the more painful knee (or dominant knee if they scored the same) was selected. Standard exclusion criteria were employed, as described in Roth S H, Shainhouse J Z. Efficacy and safety of a topical diclofenac solution ([…]®) in the treatment of primary osteoarthritis of the knee: a randomized, double-blind, vehicle-controlled clinical trial. Arch Intern Med. 2004; 164:2017-23. Study Design: […] Each study kit contained topical solution and oral tablets for one of the five treatment regimens: […] Topical Diclofenac Solution plus oral diclofenac tablets. […] Concomitant analgesic and anti-inflammatory medications, including over the counter NSAIDs and other analgesics, were prohibited. Continuation of stable treatment with glucosamine, chondroitin, anti-depressants or a proton pump inhibitor (previous 90 days), or low-dose (<325 mg/day) acetylsalicylic acid (previous 30 days) was permitted. Acetaminophen was provided, and permitted (up to four 325-mg caplets per day) except during the 3 days before each efficacy assessment. Other topical products on the knee, including skin emollients, were prohibited. A patient with a gastrointestinal adverse event was allowed to start a proton pump inhibitor. Compliance with the treatment regimen was assessed by weighing the solution bottles and counting study tablets at each clinic visit. […] of randomized placebo controlled clinical trials. J Rheumatol. 2006; 33:1841-4), and patient overall health assessment (“POHA”). The POHA asked the question, “Considering all the ways your osteoarthritic (study) knee and its treatment affect you, including both positive and negative effects, how would you rate your overall state of health in the past 48 hours?” Secondary efficacy variables were WOMAC stiffness and patient global assessment (“PGA”) of knee osteoarthritis. The PGA asked the question, “How has the osteoarthritis in your study joint been over the last 48 hours?” The POHA and PGA were scored on a 5-point Likert scale. There was no assessment of the non-treated knee. […] Adverse events were categorized according to Coding Symbols for Thesaurus of Adverse Reaction Terms (“[…]”). Blood and urine samples were obtained for routine laboratory analysis at baseline, 4 and 12 weeks. Ocular examination (visual acuity test, slit lamp examination and lens assessment) was conducted at the baseline and final visit. All planned analyses were specified a priori. […] Statistical tests were two-sided at the 5% level of significance. All efficacy analyses were by analysis of covariance of the change in score from baseline to landmark final assessment, with baseline score as the covariate. Subjects in both randomization strata were combined for all analyses. Secondary comparisons included topical diclofenac vs. placebo for the secondary variables, and topical diclofenac vs. DMSO vehicle and DMSO vehicle vs. placebo for all variables. A post hoc efficacy analysis compared topical diclofenac vs. oral diclofenac and topical diclofenac+oral diclofenac vs. oral diclofenac. For a missing final score, last observation was carried forward (“LOCF”). Safety analyses were performed on all subjects who received even one dose of either study medication. There was no imputation of missing safety data. […]

[3] = tested on: subjects with primary osteoarthritis of the knee; experiment: 12-week randomized controlled trial: safety (adverse events, laboratory parameters, ocular examination); format: in vivo, human
Procedure: Study Design: Eligible subjects were stratified by the investigator at baseline into stratum 1 (no pain and normal radiological examination in the non-study knee) or stratum 2 (pain and/or abnormal radiological examination in the non-study knee), and then randomized into the trial by receiving the next numbered study kit at that clinic for that stratum. […] Subjects applied 40 drops of solution (approximately 1.2 mL) around the entire circumference of the study knee, without massage, 4 times daily, and took one study tablet daily for up to 12 weeks.
Each subject completed a full efficacy assessment questionnaire after randomization at baseline and at 4, 8 and 12 weeks, or at drop out. […] The POHA asked the question, “Considering all the ways your osteoarthritic (study) knee and its treatment affect you, including both positive and negative effects, how would you rate your overall state of health in the past 48 hours?” Secondary efficacy variables were WOMAC stiffness and patient global assessment (“PGA”) of knee osteoarthritis. The PGA asked the question, “How has the osteoarthritis in your study joint been over the last 48 hours?” The POHA and PGA were scored on a 5-point Likert scale. There was no assessment of the non-treated knee. […] Adverse events were categorized according to Coding Symbols for Thesaurus of Adverse Reaction Terms (“COSTART”). Blood and urine samples were obtained for routine laboratory analysis at baseline, 4 and 12 weeks. Ocular examination (visual acuity test, slit lamp examination and lens assessment) was conducted at the baseline and final visit.
For a missing final score, last observation was carried forward (“LOCF”). Safety analyses were performed on all subjects who received even one dose of either study medication. There was no imputation of missing safety data.

[4] = 50 mg of oral diclofenac TID, label of Voltaren Gel
[5] = mean (SD), maximum score 4, mITT
[6] = clinical trials, combination compared to oral diclofenac alone
[7] = normal at baseline to above upper limit of normal

C[S+](C)[O-] [DMSO, Dimethyl sulfoxide]
ophthalmoscopic abnormalities (Sprague-Dawley rats): No test article-related ophthalmoscopic abnormalities
ophthalmoscopic abnormalities (Gottingen Minipigs): no test article-related ophthalmoscopic abnormalities of any kind
risk for development of lens opacities or refractive index changes (Gottingen Minipigs): no increased risk for development of lens opacities or refractive index changes

O=C(O)Cc1ccccc1Nc1c(Cl)cccc1Cl [ODiclo, diclofenac]
mean AUC0-24 [1, 4]: 3890 ng·h/mL
mean Cmax [1, 4]: 2270 ng/mL
predicted level of diclofenac reported with oral diclofenac ([1]; oral): 1500 ng/mL
PGA (patient global assessment of the study knee), change in score [2, 5]: −1.42 (1.29)
POHA (patient overall health assessment), change in score [2, 5]: −0.88 (1.31)
WOMAC Stiffness, change in score ([2]; mean (SD), maximum score 8, mITT): −2.07 (2.02)
WOMAC Pain, change in score (final score minus baseline score) ([2]; mean (SD), maximum score 20, mITT): −6.4 (4.1)
WOMAC Physical Function, change in score ([2]; mean (SD), maximum score 68, mITT): −17.5 (14.3)
improvement in variable score ([2]; oral diclofenac group): 40-48%
Abdominal pain ([3]; 12 weeks): 11 (7.3) number (%) of subjects
Abnormal taste sensation or odor ([3]; 12 weeks): 0 (0.0) number (%) of subjects
Any adverse event ([3]; 12 weeks): 94 (62.3) number (%) of subjects
Any digestive system event ([3]; 12 weeks): 36 (23.8) number (%) of subjects
Any skin/appendages event ([3]; 12 weeks): 11 (7.3) number (%) of subjects
Contact dermatitis (application site) ([3]; 12 weeks): 1 (0.7) number (%) of subjects
Contact dermatitis with vesicles (application site) ([3]; 12 weeks): 1 (0.7) number (%) of subjects
Diarrhea ([3]; 12 weeks): 7 (4.6) number (%) of subjects
Dry skin (application site) ([3]; 12 weeks): 4 (2.6) number (%) of subjects
Dyspepsia ([3]; 12 weeks): 6 (4.0) number (%) of subjects
Nausea ([3]; 12 weeks): 3 (2.0) number (%) of subjects
Pruritis (application site) ([3]; 12 weeks): 0 (0.0) number (%) of subjects
Rash ([3]; 12 weeks): 0 (0.0) number (%) of subjects
Rectal hemorrhage ([3]; 12 weeks): 0 (0.0) number (%) of subjects
incidence of hypertension ([3]; 12 weeks): 1.3%
increase in any liver enzyme to three times the upper limit of normal ([3]; 12 weeks): 2 subjects
Abnormal vision ([3]; 12 weeks, other system event): 4 (2.6) number (%) of subjects
Accidental injury ([3]; 12 weeks, other system event): 4 (2.6) number (%) of subjects
Arthralgia ([3]; 12 weeks, other system event): 12 (7.9) number (%) of subjects
Back pain ([3]; 12 weeks, other system event): 11 (7.3) number (%) of subjects
Conjunctivitis ([3]; 12 weeks, other system event): 3 (2.0) number (%) of subjects
Headache ([3]; 12 weeks, other system event): 26 (17.2) number (%) of subjects
Pain ([3]; 12 weeks, other system event): 8 (5.3) number (%) of subjects
Respiratory disorder ([3]; 12 weeks, other system event): 8 (5.3) number (%) of subjects
ALT, mean change ([3]; baseline to final, mean (SD)): 7.2 (25.3) U/L
AST, mean change ([3]; baseline to final, mean (SD)): 2.5 (10.9) U/L
Creatinine, mean change ([3]; baseline to final, mean (SD)): 3.1 (11.0) μmol/L
Hemoglobin, mean change ([3]; baseline to final, mean (SD)): −3.8 (7.1) g/L
abnormal creatinine [3, 6]: 7%
abnormal hemoglobin [3, 6]: 9%
abnormal urea [3, 6]: 12%
rate of rectal hemorrhage ([3]; clinical trials, combination of topical and oral diclofenac compared to oral diclofenac alone): less than 1%
ALT, normal to abnormal [3, 7]: 26 (18.8) N (%)
Creatinine, normal to abnormal [3, 7]: 10 (7.2) N (%)
Hemoglobin, normal to abnormal ([3]; normal at baseline to below lower limit of normal): 8 (5.8) N (%)
serious adverse events ([3]; number of events per arm, 12 weeks): 1
